Values of other authors, collected in US7981649B2 (priority 2001, dated 2011).

Tested on: human hepatocyte and neuroblastoma cells

Compound	effect on cell metabolism
CCOP(=O)(OCC)Oc1ccc([N+](=O)[O-])cc1 [paraoxon]	opposite effects on hepatocyte and neuroblastoma cell metabolism
CCOP(=S)(OCC)Oc1ccc([N+](=O)[O-])cc1 [parathion]	opposite effects on hepatocyte and neuroblastoma cell metabolism
